According to US20110082130A1 (LIGAND PHARMACEUTICALS, INC., priority 2006, published 2011):

The compounds below were run against T1, chimeric human H3 receptor (Homo sapiens, UniProt Q9Y5N1) (assay: Chimeric human H3 receptor screening GTP binding assay (inhibition of histamine-stimulated GTP-gamma35S binding, Example 8)). Conditions: 4 μM of the compound, 1 μM histamine, "†" in Ki of Table II, read-out: percent inhibition of the signal obtained with 1 μM histamine.
T1 construct: made in house; host or cells: Sf9 insect cells (baculovirus); P2 membrane preparation
T1 sequence (Q9Y5N1 with tags, fused parts or gaps): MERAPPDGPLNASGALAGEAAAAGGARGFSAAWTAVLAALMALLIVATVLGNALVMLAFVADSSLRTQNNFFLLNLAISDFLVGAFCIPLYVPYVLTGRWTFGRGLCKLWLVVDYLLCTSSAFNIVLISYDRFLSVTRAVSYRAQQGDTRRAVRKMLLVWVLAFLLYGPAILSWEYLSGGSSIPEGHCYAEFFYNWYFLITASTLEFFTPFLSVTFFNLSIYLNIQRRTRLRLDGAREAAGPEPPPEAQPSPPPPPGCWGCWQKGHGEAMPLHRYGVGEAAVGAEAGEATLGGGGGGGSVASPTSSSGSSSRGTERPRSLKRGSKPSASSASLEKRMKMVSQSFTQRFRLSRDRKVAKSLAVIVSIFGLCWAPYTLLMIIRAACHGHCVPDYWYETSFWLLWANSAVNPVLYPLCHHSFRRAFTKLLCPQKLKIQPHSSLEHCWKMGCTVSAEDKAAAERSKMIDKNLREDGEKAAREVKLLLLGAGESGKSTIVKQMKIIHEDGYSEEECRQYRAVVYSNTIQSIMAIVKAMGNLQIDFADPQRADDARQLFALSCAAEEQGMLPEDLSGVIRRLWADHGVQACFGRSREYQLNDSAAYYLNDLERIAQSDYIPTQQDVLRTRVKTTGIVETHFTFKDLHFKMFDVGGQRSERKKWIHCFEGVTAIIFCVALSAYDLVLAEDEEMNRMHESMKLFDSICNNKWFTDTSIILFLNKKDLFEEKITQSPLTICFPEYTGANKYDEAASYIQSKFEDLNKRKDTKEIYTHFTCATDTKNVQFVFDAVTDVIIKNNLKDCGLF
Format: biochemical
Procedure: This Example illustrates a representative screening assay for evaluating inhibition of histamine-stimulated GTP-gamma^35S binding. Such GTP binding activity can be used to identify H3 antagonists and inverse agonists. A compound analyzed in this assay is referred to herein as a “test compound,” and the initial identification of antagonists and inverse agonists is performed using a test compound concentration of 4 μM.
Four independent baculoviral stocks (one directing the expression of the chimeric human H3 receptor and three directing the expression of each of the three subunits of a heterotrimeric G-protein) are used to infect a culture of Sf9 cells as described above. P2 membranes are prepared as described above, and are resuspended by Dounce homogenization (tight pestle) in GTP binding assay buffer (50 mM Tris pH 7.4, 120 mM NaCl, 5 mM MgCl2, 2 mM EGTA, 1 mg/ml BSA, 0.2 mg/ml bacitracin, 0.02 mg/ml aprotinin, 0.01 mg/ml saponin, 10 μM GDP) and added to assay tubes at a concentration of 35 μg protein/reaction tube. Non-radiolabeled test compounds are added to separate reactions at a concentration of 4 μM along with 1 μM histamine (agonist). Reactions are initiated by the addition of […] GTP-gamma^35S with a final assay volume of 0.20 ml.
After a 60-min incubation at room temperature, reactions are terminated by vacuum filtration over GF/C filters (pre-soaked in 50 mM Tris pH 7.4, 120 mM NaCl plus 0.1% BSA) followed by washing with ice-cold buffer (50 mM Tris pH 7.4, 120 mM NaCl). The amount of receptor-bound (and thereby membrane-bound) GTP-gamma^35S is determined by measuring the bound radioactivity, preferably by liquid scintillation spectrometry of the washed filters. Non-specific binding is determined using 10 uM GTP-gammaS and typically represents less than 5 percent of total binding. After subtraction of non-specific binding, data is expressed as percent inhibition of 1 μM histamine signal.
Neutral antagonists are those test compounds that reduce the histamine-stimulated GTP binding activity towards, but not below, baseline levels. In contrast, in the absence of added histamine, inverse agonists reduce the GTP binding activity of the receptor-containing membranes below baseline. Any test compound that elevates GTP binding activity above baseline in the absence of added histamine in this assay is defined as having agonist activity.

| Structure (SMILES) | inhibition at 4 µM |
| --- | --- |
| CC(C)c1ccc(-c2ccc3c(c2)CCN(CC(=O)N2CCN(C4CCC4)CC2)C3)cc1 [Compound 443, 2-[2-(4-cyclobutylpiperazin-1-yl)-2-oxoethyl]-6-(4-isopropylphenyl)-1,2,3,4-tetrahydroisoquinoline] | ≥ 90% |
| CC(C)c1cccc(-c2ccc3c(c2)CCN(CC(=O)N2CCN(C4CCCCC4)CC2)C3)c1 [Compound 441, 2-[2-(4-cyclohexylpiperazin-1-yl)-2-oxoethyl]-6-(3-isopropylphenyl)-1,2,3,4-tetrahydroisoquinoline] | ≥ 90% |
| Cc1cc(C)cc(-c2ccc3c(c2)CCN(CC(=O)N2CCN(C4CCCC4)CC2)C3)c1 [Compound 456, 2-[2-(4-cyclopentylpiperazin-1-yl)-2-oxoethyl]-6-(3,5-dimethylphenyl)-1,2,3,4-tetrahydroisoquinoline] | ≥ 90% |
| COc1ccc(C(C)C)cc1-c1nc2c(s1)CN(CC(=O)N1CCN(C3CCC3)CC1)CC2 [Compound 337, 5-[2-(4-cyclobutylpiperazin-1-yl)-2-oxoethyl]-2-(5-isopropyl-2-methoxyphenyl)-4,5,6,7-tetrahydro[1,3]thiazolo [5,4-c]pyridine] | ≥ 90% |
| CCCc1ccc(-c2ccc3c(c2)CCN(CC(=O)N2CCN(C4CCCC4)CC2)C3)cc1 [Compound 464, 2-[2-(4-cyclopentylpiperazin-1-yl)-2-oxoethyl]-6-(4-propylphenyl)-1,2,3,4-tetrahydroisoquinoline] | ≥ 90% |
| CCc1ccc(-c2ccc3c(c2)CCN(CC(=O)N2CCN(C(C)C)CC2)C3)cc1 [Compound 462, 6-(4-ethylphenyl)-2-[2-(4-isopropylpiperazin-1-yl)-2-oxoethyl]-1,2,3,4-tetrahydroisoquinoline] | ≥ 90% |
| Cc1cccc(-c2ccc3c(c2)CCN(CC(=O)N2CCN(C4CCCCC4)CC2)C3)c1 [Compound 434, 2-[2-(4-cyclohexylpiperazin-1-yl)-2-oxoethyl]-6-(3-methylphenyl)-1,2,3,4-tetrahydroisoquinoline] | ≥ 90% |
| COc1ccc(F)cc1-c1nc2c(s1)CN(CC(=O)N1CCN(C3CCC3)CC1)CC2 [Compound 343, 5-[2-(4-cyclobutylpiperazin-1-yl)-2-oxoethyl]-2-(5-fluoro-2-methoxyphenyl)-4,5,6,7-tetrahydro[1,3]thiazolo [5,4-c]pyridine] | ≥ 90% |
| CC(C)c1ccc(-c2ccc3c(c2)CCN(CC(=O)N2CCN(C4CCCC4)CC2)C3)cc1 [Compound 444, 2-[2-(4-cyclopentylpiperazin-1-yl)-2-oxoethyl]-6-(4-isopropylphenyl)-1,2,3,4-tetrahydroisoquinoline] | ≥ 90% |
| O=C(CN1CCc2cc(-c3ccc(F)cc3)ccc2C1)N1CCN(C2CCCCC2)CC1 [Compound 409, 2-[2-(4-cyclohexylpiperazin-1-yl)-2-oxoethyl]-6-(4-fluorophenyl)-1,2,3,4-tetrahydroisoquinoline] | ≥ 90% |
| Cc1ccc(-c2ccc3c(c2)CCN(CC(=O)N2CCN(C(C)C)CC2)C3)cc1C [Compound 450, 6-(3,4-dimethylphenyl)-2-[2-(4-isopropylpiperazin-1-yl)-2-oxoethyl]-1,2,3,4-tetrahydroisoquinoline] | ≥ 90% |
| CCc1ccc(-c2ccc3c(c2)CCN(CC(=O)N2CCN(C4CCCC4)CC2)C3)cc1 [Compound 460, 2-[2-(4-cyclopentylpiperazin-1-yl)-2-oxoethyl]-6-(4-ethylphenyl)-1,2,3,4-tetrahydroisoquinoline] | ≥ 90% |
| Cc1ccc(-c2ccc3c(c2)CCN(CC(=O)N2CCN(C4CCCCC4)CC2)C3)cc1F [Compound 428, 2-[2-(4-cyclohexylpiperazin-1-yl)-2-oxoethyl]-6-(3-fluoro-4-methylphenyl)-1,2,3,4-tetrahydroisoquinoline] | ≥ 90% |
| Cc1cccc(-c2ccc3c(c2)CCN(CC(=O)N2CCN(C4CCCC4)CC2)C3)c1 [Compound 433, 2-[2-(4-cyclopentylpiperazin-1-yl)-2-oxoethyl]-6-(3-methylphenyl)-1,2,3,4-tetrahydroisoquinoline] | ≥ 90% |

Same assay, conditions: Table II "Ki", symbol †, 4 μM of the compound, 1 μM histamine, read-out: percent inhibition of the signal obtained with 1 μM histamine

| Structure (SMILES) | inhibition at 4 µM |
| --- | --- |
| O=C(CN1CCc2cc(-c3ccc(F)c(F)c3)ccc2C1)N1CCN(C2CCCC2)CC1 [Compound 590, 2-[2-(4-cyclopentylpiperazin-1-yl)-2-oxoethyl]-6-(3,4-difluorophenyl)-1,2,3,4-tetrahydroisoquinoline] | ≥ 90% |
| CC(C)N1CCN(C(=O)CN2CCc3cc(-c4ccccc4Oc4ccccc4)ccc3C2)CC1 [Compound 578, 2-[2-(4-isopropylpiperazin-1-yl)-2-oxoethyl]-6-(2-phenoxyphenyl)-1,2,3,4-tetrahydroisoquinoline] | ≥ 90% |
| COC1CCCCC1N1C[C@@H]2C[C@H]1CN2C(=O)CN1CCc2cc(-c3cncnc3)ccc2C1 (stereo in doubt) [Compound 620, 2-{2-[(1S,4S)-5-(2-methoxycyclohexyl)-2,5-diazabicyclo[2.2.1]hept-2-yl]-2-oxoethyl}-6-pyrimidin-5-yl-1,2,3,4-tetrahydroisoquinoline] | ≥ 90% |
| O=C(CN1CCc2cc(-c3cc(F)cc(F)c3)ccc2C1)N1CCN(C2CCCCC2)CC1 [Compound 598, 2-[2-(4-cyclohexylpiperazin-1-yl)-2-oxoethyl]-6-(3,5-difluorophenyl)-1,2,3,4-tetrahydroisoquinoline] | ≥ 90% |
| COc1ccc(-c2ccc3c(c2)CCN(CC(=O)N2CCN(C(C)C)CC2)C3)cc1C [Compound 543, 2-[2-(4-isopropylpiperazin-1-yl)-2-oxoethyl]-6-(4-methoxy-3-methylphenyl)-1,2,3,4-tetrahydroisoquinoline] | ≥ 90% |
| O=C(CN1CCc2cc(-c3cc(F)ccc3F)ccc2C1)N1CCN(C2CCCC2)CC1 [Compound 583, 2-[2-(4-cyclopentylpiperazin-1-yl)-2-oxoethyl]-6-(2,5-difluorophenyl)-1,2,3,4-tetrahydroisoquinoline] | ≥ 90% |
| CCOc1ccccc1-c1ccc2c(c1)CCN(CC(=O)N1CCN(C3CCC3)CC1)C2 [Compound 566, 2-[2-(4-cyclobutylpiperazin-1-yl)-2-oxoethyl]-6-(2-ethoxyphenyl)-1,2,3,4-tetrahydroisoquinoline] | ≥ 90% |
| CC(C)N1CCN(C(=O)CN2CCc3cc(-c4cccc(OC(F)(F)F)c4)ccc3C2)CC1 [Compound 493, 2-[2-(4-isopropylpiperazin-1-yl)-2-oxoethyl]-6-[3-(trifluoromethoxy)phenyl]-1,2,3,4-tetrahydroisoquinoline] | ≥ 90% |
| COc1ccc(C)cc1-c1ccc2c(c1)CCN(CC(=O)N1CCN(C3CCCCC3)CC1)C2 [Compound 574, 2-[2-(4-cyclohexylpiperazin-1-yl)-2-oxoethyl]-6-(2-methoxy-5-methylphenyl)-1,2,3,4-tetrahydroisoquinoline] | ≥ 90% |
| O=C(CN1CCc2cc(-c3ccc(Oc4ccccc4)cc3)ccc2C1)N1CCN(C2CCC2)CC1 [Compound 486, 2-[2-(4-cyclobutylpiperazin-1-yl)-2-oxoethyl]-6-(4-phenoxyphenyl)-1,2,3,4-tetrahydroisoquinoline] | ≥ 90% |
| COc1ccccc1-c1ccc2c(c1)CCN(CC(=O)N1CCN(C3CCCCC3)CC1)C2 [Compound 553, 2-[2-(4-cyclohexylpiperazin-1-yl)-2-oxoethyl]-6-(2-methoxyphenyl)-1,2,3,4-tetrahydroisoquinoline] | ≥ 90% |
| COc1ccc2cc(-c3ccc4c(c3)CCN(CC(=O)N3CCN(C5CCCCC5)CC3)C4)ccc2c1 [Compound 511, 2-[2-(4-cyclohexylpiperazin-1-yl)-2-oxoethyl]-6-(6-methoxy-2-naphthyl)-1,2,3,4-tetrahydroisoquinoline] | ≥ 90% |
| O=C(CN1CCc2cc(-c3ccc(F)c(Cl)c3)ccc2C1)N1CCN(C2CCCC2)CC1 [Compound 580, 6-(3-chloro-4-fluorophenyl)-2-[2-(4-cyclopentylpiperazin-1-yl)-2-oxoethyl]-1,2,3,4-tetrahydroisoquinoline] | ≥ 90% |
| O=C(CN1CCc2cc(-c3cccc(OC(F)(F)F)c3)ccc2C1)N1CCN(C2CCCC2)CC1 [Compound 491, 2-[2-(4-cyclopentylpiperazin-1-yl)-2-oxoethyl]-6-[3-(trifluoromethoxy)phenyl]-1,2,3,4-tetrahydroisoquinoline] | ≥ 90% |
| COc1ccc(-c2ccc3c(c2)CCN(CC(=O)N2CCN(C4CCC4)CC2)C3)c(C)c1 [Compound 548, 2-[2-(4-cyclobutylpiperazin-1-yl)-2-oxoethyl]-6-(4-methoxy-2-methylphenyl)-1,2,3,4-tetrahydroisoquinoline] | ≥ 90% |
